Experimental data reported in US11999745B2, “Pharmaceutical compounds” (Heptares Therapeutics Limited, priority 2020, dated 2024).
In brackets after ≈: the same amount, converted by molar mass. Several values for one entry are separate records, joined by “and”; a condition that tells them apart may be missing. Equal entries are not always repeated. Where two headings read alike, the source gives them in different places.

Assays:
[1] = Aqueous solubility (thermodynamic), LCMS/MS method; type: physicochemical; conditions: 1 mg/mL theoretical, individual replicates; for solubility thermodynamic at 4 h: 25 °C, thermodynamic from solid
Procedure: A 10 mM stock solution (in DMSO) was prepared for the test sample. From the 10 mM stock solution, a working solution of 1 μM was prepared by diluting the test sample in mobile phase solution (typically, methanol: 2 mM ammonium acetate containing suitable internal standard (IS)—carbamazepine/any other suitable IS). Further, the working solution was serially diluted in mobile phase solution up to 5 to 6 linearity point to prepare standard solution for plotting calibration curve. The area for each standard sample is analyzed in singlet using LCMS/MS. The normalized area values are plotted vs. concentration to achieve calibration equation to determine the unknown sample. […] Test compound was dispersed in buffer solution using a vortex mixer.
The resulting solution are then kept on RotoSpin (shaker) at 50 rpm for 4 hours for TD solubility at room temperature (25° C.). After the incubation period, the solution is filtered using 0.45 micron PVDF injector filters in order to remove the insoluble fraction of the compound. Filtrate is diluted in mobile phase and subsequently the AUC is ascertained for diluted samples using LCMS/MS. From the AUC of test sample the corresponding concentration is calculated using 5 to 6 point linearity/calibration curve.
All numbers reported as uM.

[2] = system: scPCP treated female Lister Hooded rats; assay: Attenuation of sub-chronic PCP-induced deficit in the operant reversal learning task; type: in vivo, rat; conditions: p.o., 1 hour ptt
Procedure: Investigate the ability of Example 1 (1, 3, 10 and 30 mg/kg, p.o., 1 hour pre-treatment time ptt) to attenuate the disruption of a cognitive task induced by sub-chronic treatment with phencyclidine (scPCP) in female Lister Hooded rats.
Female Lister Hooded rats were used for this experiment. The average weight of rats at the time of testing was 294 g±29 g. Rats were housed in groups of 3-5 under standard laboratory conditions under a 12 hr light: dark cycle (lights on at 0700 hr), and food restricted to 90% of free-feeding bodyweight (12 g of food per rat per day). Testing was carried out in the light phase. Rats were randomly assigned to two treatment groups and received vehicle, n=8 (0.9% saline solution, i.p.) or PCP, n=48 (2 mg/kg, i.p. twice daily for 7-days). On the day of testing, rats were randomly assigned to seven treatment groups (n=6-8 per group) to receive an acute treatment with Example 1 (1, 3, 10 and 30 mg/kg, p.o., 1 hour ptt) or vehicle. […]
Following habituation to the operant chambers, rats were trained to respond for food on an FR1 (Fixed Ratio 1) schedule of reinforcement with both levers active. […] Each session lasted 20 minutes and counts were recorded on each lever. […]
The day before each reversal learning task session, a full […] operant training session (as described above) was conducted to ensure stable responding. […] During this period, responses on both correct and incorrect levers were recorded. […] Responses made on the correct and incorrect levers were again recorded. […]
Data are presented as percent correct response (±S.E.M) with values for the initial and reversal phases are presented for the different drug treatment groups (FIG. 2). The percentage correct response data were used to determine whether there was a significant effect of drug on response accuracy (e.g. that might reflect cognitive dysfunction); Statistical significance was assumed when P<0.05 and was determined using one-way ANOVA in order to detect main effect of drug treatment in the initial and reversal phases.

CC(C)(C)NC(=O)C1CCN([C@H]2C[C@H]3CC[C@@H](C2)N3c2nc(C(F)(F)F)no2)CC1 [Example 1, N-tert-butyl-1-{(1R,3r,5S)-8-[3-(trifluoromethyl)-1,2,4-oxadiazol-5-yl]-8-azabicyclo[3.2.1]octan-3-yl}piperidine-4-carboxamide]
Thermodynamic solubility, Blank FaSSIF pH 6.5 (n = 4) ([1]; Blank FaSSIF (Aq. Buffer) pH 6.5, 4 hours, 25° C.): 1941 uM and 1937 uM and 2022 uM
solubility thermodynamic at 4 h ([1]; Blank FaSSIF (aqueous buffer), pH 6.5, aqueous buffer, Blank FaSSIF (Aq. Buffer) pH 6.5, 4 hours, read-out: Thermodynamic solubility, Blank FaSSIF pH 6.5 (n = 4)): 1740 µM (≈ 749 µg/mL)
Thermodynamic solubility, FaSSIF pH 6.5 (n = 4) ([1]; FaSSIF pH 6.5, 4 hours, 25° C.): 2448 uM and 1713 uM and 2104 uM
solubility thermodynamic at 4 h ([1]; FaSSIF, pH 6.5, fassif, FaSSIF pH 6.5, 4 hours, read-out: Thermodynamic solubility, FaSSIF pH 6.5 (n = 4)): 2010 µM (≈ 862 µg/mL)
Thermodynamic solubility, SGF pH 1.2 (n = 4) ([1]; SGF pH 1.2, 4 hours, 25° C.): 1988 uM and 1702 uM and 2039 uM
solubility thermodynamic at 4 h ([1]; SGF, pH 1.2, simulated gastric fluid, SGF pH 1.2, 4 hours, read-out: Thermodynamic solubility, SGF pH 1.2 (n = 4)): 2080 µM (≈ 893 µg/mL)
percent correct responding in the reversal phase vs scPCP group ([2]; 1 mg/kg, P<0.05): increased percent correct responding
percent correct responding in the reversal phase vs scPCP group ([2]; 3 mg/kg, P<0.05): increased percent correct responding
percent correct responding in the reversal phase vs scPCP group ([2]; 10 mg/kg, P<0.01): increased percent correct responding
